Our source for the MIC80 values is ChEMBL document CHEMBL1146065, “Structure-based optimization of azole antifungal agents by CoMFA, CoMSIA, and molecular docking” (2006).

Holding throughout (format): functional
For one assay, the system named is Candida albicans. As to the kind of experiment: Antifungal activity against Candida albicans.
Another assay deals with Candida tropicalis. As to the kind of experiment: Antifungal activity against Candida tropicalis.
Another assay relates to Cryptococcus neoformans. The assay is described as follows: Antifungal activity against Cryptococcus neoformans.
The test system of a further assay is Aspergillus fumigatus. As to the kind of experiment: Antifungal activity against Aspergillus fumigatus.
In the next assay the test system is Sporothrix schenckii. The assay is described as follows: Antifungal activity against Sporothrix schenckii.
A further assay has as its system Fonsecaea pedrosoi. As to the kind of experiment: Antifungal activity against Fonsecaea pedrosoi.
The test system of a further assay is Trichophyton rubrum. As to the kind of experiment: Antifungal activity against Trichophyton rubrum.
The test system of another assay is Candida parapsilosis. As to the kind of experiment: Antifungal activity against Candida parapsilosis. As to conditions: Lodderomyces parapsilosis.

In brackets after ≈: the same amount, converted by molar mass.

For `OC(CN1CCN(c2ccncc2)CC1)(Cn1cncn1)c1ccc(F)cc1F` (configuration not stated), the MIC80 (as a rule, an inhibitory concentration at the 80% level, which refers to growth in some studies and to a panel of isolates in others) in the assay with Candida albicans was 2.5 µM. That is a single-digit micromolar value.
Consider `Cc1ccc(C(=O)Cn2ncn(-c3ccc(CN(C)CC(O)(Cn4cncn4)c4ccc(F)cc4F)cc3)c2=O)c(C)c1` (configuration not stated), for which the MIC80 in the assay with Candida tropicalis stood at 0.0625 µg/mL (≈ 0.106 µM); in the assay with Cryptococcus neoformans, 0.5 µg/mL (≈ 0.851 µM); with Aspergillus fumigatus, 8 µg/mL (≈ 13.6 µM); against Sporothrix schenckii it was 64 µg/mL (≈ 109 µM); against Fonsecaea pedrosoi, 0.0625 µg/mL (≈ 0.106 µM); in the assay with Candida albicans it was 0.002 µg/mL. Further, the MIC80 in the assay on Trichophyton rubrum was 0.5 µg/mL (≈ 0.851 µM); against Candida parapsilosis, 0.125 µg/mL (≈ 0.213 µM).
Regarding `CN(Cc1ccc(-n2cnn(CC(=O)c3ccccc3)c2=O)cc1)CC(O)(Cn1cncn1)c1ccc(F)cc1F` (configuration not stated), the MIC80 against Candida tropicalis was 0.0625 µg/mL (≈ 0.112 µM); in the assay with Cryptococcus neoformans, 8 µg/mL (≈ 14.3 µM); against Aspergillus fumigatus it was 64 µg/mL (≈ 114 µM); against Sporothrix schenckii it was 64 µg/mL (≈ 114 µM); against Fonsecaea pedrosoi, 1 µg/mL (≈ 1.79 µM); in the assay on Candida albicans, 0.016 µg/mL. For the same molecule, the values for the MIC80 against Trichophyton rubrum and against Candida parapsilosis were 8 µg/mL (≈ 14.3 µM) and 0.008 µg/mL (≈ 0.0143 µM), respectively.
For the molecule `CCc1ccc(C(=O)Cn2ncn(-c3ccc(CN(C)CC(O)(Cn4cncn4)c4ccc(F)cc4F)cc3)c2=O)cc1` (configuration not stated), the MIC80 in the assay with Candida tropicalis came to 0.5 µg/mL (≈ 0.851 µM); against Cryptococcus neoformans it was 16 µg/mL (≈ 27.2 µM); in the assay on Aspergillus fumigatus it was 64 µg/mL (≈ 109 µM); in the assay on Sporothrix schenckii, 64 µg/mL (≈ 109 µM); in the assay with Fonsecaea pedrosoi it was 8 µg/mL (≈ 13.6 µM); against Candida albicans it was 0.25 µg/mL. For the same molecule, the MIC80 in the assay on Trichophyton rubrum is 32 µg/mL (≈ 54.5 µM); in the assay on Candida parapsilosis it was 2 µg/mL (≈ 3.4 µM).
Consider `Cc1ccc(Cn2ncn(-c3ccc(CN(C)CC(O)(Cn4cncn4)c4ccc(F)cc4F)cc3)c2=O)cc1` (configuration not stated), for which the MIC80 with Candida tropicalis came out at 0.5 µg/mL (≈ 0.916 µM); with Cryptococcus neoformans, 1 µg/mL (≈ 1.83 µM); against Aspergillus fumigatus, 32 µg/mL (≈ 58.7 µM); against Sporothrix schenckii, 64 µg/mL (≈ 117 µM); in the assay with Fonsecaea pedrosoi, 0.25 µg/mL (≈ 0.458 µM); in the assay on Candida albicans it was 0.002 µg/mL. In addition, the MIC80 was found to be 1 µg/mL (≈ 1.83 µM) against Trichophyton rubrum and 0.125 µg/mL (≈ 0.229 µM) in the assay with Candida parapsilosis.
In the case of `CN(Cc1ccc(-n2cnn(CC(=O)c3ccc(Br)cc3)c2=O)cc1)CC(O)(Cn1cncn1)c1ccc(F)cc1F` (configuration not stated), the MIC80 against Candida tropicalis stood at 0.0625 µg/mL (≈ 0.0979 µM); against Cryptococcus neoformans, 0.25 µg/mL (≈ 0.392 µM); against Aspergillus fumigatus it was 16 µg/mL (≈ 25.1 µM); with Sporothrix schenckii, 64 µg/mL (≈ 100 µM); with Fonsecaea pedrosoi, 0.0625 µg/mL (≈ 0.0979 µM); with Candida albicans, 0.002 µg/mL. Besides, the MIC80 in the assay on Trichophyton rubrum was 0.25 µg/mL (≈ 0.392 µM); with Candida parapsilosis, 1 µg/mL (≈ 1.57 µM).
As to `CN(Cc1cccc(C(F)(F)F)c1)CC(O)(Cn1cncn1)c1ccc(F)cc1F` (configuration not stated), the MIC80 in the assay with Candida tropicalis came out at 0.25 µg/mL (≈ 0.586 µM); with Cryptococcus neoformans, 0.5 µg/mL (≈ 1.17 µM); with Aspergillus fumigatus, 64 µg/mL (≈ 150 µM); in the assay on Sporothrix schenckii, 64 µg/mL (≈ 150 µM); in the assay with Fonsecaea pedrosoi, 1 µg/mL (≈ 2.35 µM); against Candida albicans, 0.032 µg/mL. In addition, the MIC80 in the assay with Trichophyton rubrum came out at 8 µg/mL (≈ 18.8 µM); against Candida parapsilosis, 4 µg/mL (≈ 9.38 µM).
In the case of `CN(Cc1ccc(-n2cnn(CC(=O)c3ccc(Cl)cc3)c2=O)cc1)CC(O)(Cn1cncn1)c1ccc(F)cc1F` (configuration not stated), the MIC80 in the assay with Candida tropicalis is 0.0625 µg/mL (≈ 0.105 µM); against Cryptococcus neoformans it was 2 µg/mL (≈ 3.37 µM); with Aspergillus fumigatus, 64 µg/mL (≈ 108 µM); against Sporothrix schenckii, 64 µg/mL (≈ 108 µM); with Fonsecaea pedrosoi, 0.25 µg/mL (≈ 0.421 µM); against Candida albicans, 0.004 µg/mL. Besides, the values for the MIC80 in the assay on Trichophyton rubrum and in the assay with Candida parapsilosis were 4 µg/mL (≈ 6.73 µM) and 0.03 µg/mL (≈ 0.0505 µM), respectively.
On to `O=Cc1ccc(N2CCN(CC(O)(Cn3cncn3)c3ccc(F)cc3F)CC2)cc1` (configuration not stated), for which the MIC80 in the assay on Candida albicans is 0.035 µM.
The same measure, in the same setting: under `CC(C)(C)c1ccc(N2CCN(CC(O)(Cn3cncn3)c3ccc(F)cc3F)CC2)cc1` (configuration not stated) stands 0.137 µM.
For the molecule `CN(Cc1ccc(-n2cnn(CC(=O)c3ccc(F)cc3F)c2=O)cc1)CC(O)(Cn1cncn1)c1ccc(F)cc1F` (configuration not stated), the MIC80 in the assay on Candida tropicalis was determined as 0.0625 µg/mL (≈ 0.105 µM); against Cryptococcus neoformans, 8 µg/mL (≈ 13.4 µM); against Aspergillus fumigatus, 64 µg/mL (≈ 107 µM); in the assay on Sporothrix schenckii, 64 µg/mL (≈ 107 µM); in the assay with Fonsecaea pedrosoi it was 2 µg/mL (≈ 3.36 µM); against Candida albicans, 0.008 µg/mL. The MIC80 in the assay with Trichophyton rubrum was determined as 4 µg/mL (≈ 6.72 µM); with Candida parapsilosis it was 0.016 µg/mL (≈ 0.0269 µM).
`OC(CN1CCN(c2cccc(C(F)(F)F)c2)CC1)(Cn1cncn1)c1ccc(F)cc1F` (configuration not stated) came in with an MIC80 in the assay with Candida albicans of 0.032 µM.
As to `CN(Cc1ccc(N)cc1)CC(O)(Cn1cncn1)c1ccc(F)cc1F` (configuration not stated), the MIC80 came out at 0.5 µg/mL (≈ 1.34 µM) with Candida tropicalis; 8 µg/mL (≈ 21.4 µM) in the assay with Cryptococcus neoformans; 64 µg/mL (≈ 171 µM) with Aspergillus fumigatus; 64 µg/mL (≈ 171 µM) in the assay on Sporothrix schenckii; 4 µg/mL (≈ 10.7 µM) in the assay with Fonsecaea pedrosoi; 0.0625 µg/mL in the assay with Candida albicans. In addition, the MIC80 with Trichophyton rubrum came to 16 µg/mL (≈ 42.8 µM); in the assay on Candida parapsilosis, 2 µg/mL (≈ 5.36 µM).
In the case of `Cc1ccc(C(=O)Cn2ncn(-c3ccc(CN(C)CC(O)(Cn4cncn4)c4ccc(F)cc4F)cc3)c2=O)c(Cl)c1` (configuration not stated), the MIC80 came to 0.0625 µg/mL (≈ 0.103 µM) against Candida tropicalis; 64 µg/mL (≈ 105 µM) against Cryptococcus neoformans; 32 µg/mL (≈ 52.6 µM) against Aspergillus fumigatus; 64 µg/mL (≈ 105 µM) in the assay on Sporothrix schenckii; 1 µg/mL (≈ 1.64 µM) with Fonsecaea pedrosoi; 0.125 µg/mL in the assay with Candida albicans. Besides, the MIC80 in the assay with Trichophyton rubrum was determined as 64 µg/mL (≈ 105 µM); in the assay with Candida parapsilosis, 0.5 µg/mL (≈ 0.822 µM).
As for `CC(C)c1ccc(C(=O)Cn2ncn(-c3ccc(CN(C)CC(O)(Cn4cncn4)c4ccc(F)cc4F)cc3)c2=O)cc1` (configuration not stated), the MIC80 in the assay on Candida tropicalis was 0.125 µg/mL (≈ 0.208 µM); with Cryptococcus neoformans, 1 µg/mL (≈ 1.66 µM); against Aspergillus fumigatus it was 32 µg/mL (≈ 53.2 µM); with Sporothrix schenckii it was 64 µg/mL (≈ 106 µM); in the assay on Fonsecaea pedrosoi it was 0.125 µg/mL (≈ 0.208 µM); against Candida albicans, 0.004 µg/mL. Further, the values for the MIC80 against Trichophyton rubrum and against Candida parapsilosis were 1 µg/mL (≈ 1.66 µM) and 0.06 µg/mL (≈ 0.0997 µM), respectively.
Consider `CN(Cc1ccc(-n2cnn(CC(=O)c3ccc(F)cc3)c2=O)cc1)CC(O)(Cn1cncn1)c1ccc(F)cc1F` (configuration not stated), for which the MIC80 came out at 0.0625 µg/mL (≈ 0.108 µM) in the assay on Candida tropicalis; 1 µg/mL (≈ 1.73 µM) against Cryptococcus neoformans; 64 µg/mL (≈ 111 µM) against Aspergillus fumigatus; 64 µg/mL (≈ 111 µM) in the assay with Sporothrix schenckii; 0.0625 µg/mL (≈ 0.108 µM) against Fonsecaea pedrosoi; 0.004 µg/mL against Candida albicans. Besides, the MIC80 worked out at 2 µg/mL (≈ 3.46 µM) in the assay with Trichophyton rubrum and 0.06 µg/mL (≈ 0.104 µM) in the assay with Candida parapsilosis.
For `CN(Cc1ccccc1[N+](=O)[O-])CC(O)(Cn1cncn1)c1ccc(F)cc1F` (configuration not stated), the MIC80 came to 0.25 µg/mL (≈ 0.62 µM) in the assay on Candida tropicalis; 0.25 µg/mL (≈ 0.62 µM) in the assay with Cryptococcus neoformans; 4 µg/mL (≈ 9.92 µM) in the assay on Aspergillus fumigatus; 64 µg/mL (≈ 159 µM) against Sporothrix schenckii; 1 µg/mL (≈ 2.48 µM) against Fonsecaea pedrosoi; 2 µg/mL in the assay with Candida albicans. In addition, the MIC80 against Trichophyton rubrum is 0.25 µg/mL (≈ 0.62 µM); against Candida parapsilosis it was 2 µg/mL (≈ 4.96 µM).
In the assay with Candida albicans, `N#Cc1ccc(N2CCN(CC(O)(Cn3cncn3)c3ccc(F)cc3F)CC2)cc1` (configuration not stated) yielded an MIC80 of 0.0324 µM.
As for `CN(Cc1ccc(C(F)(F)F)cc1)CC(O)(Cn1cncn1)c1ccc(F)cc1F` (configuration not stated), the MIC80 came out at 1 µg/mL (≈ 2.35 µM) against Candida tropicalis; 0.25 µg/mL (≈ 0.586 µM) against Cryptococcus neoformans; 8 µg/mL (≈ 18.8 µM) with Aspergillus fumigatus; 64 µg/mL (≈ 150 µM) against Sporothrix schenckii; 0.125 µg/mL (≈ 0.293 µM) against Fonsecaea pedrosoi; 0.031 µg/mL with Candida albicans. Further, the MIC80 in the assay with Trichophyton rubrum is 0.5 µg/mL (≈ 1.17 µM); with Candida parapsilosis, 2 µg/mL (≈ 4.69 µM).
For `COc1ccc(C(=O)Cn2ncn(-c3ccc(CN(C)CC(O)(Cn4cncn4)c4ccc(F)cc4F)cc3)c2=O)cc1` (configuration not stated), the MIC80 in the assay on Candida tropicalis worked out at 0.125 µg/mL (≈ 0.212 µM); against Cryptococcus neoformans, 8 µg/mL (≈ 13.6 µM); with Aspergillus fumigatus, 32 µg/mL (≈ 54.3 µM); in the assay with Sporothrix schenckii, 64 µg/mL (≈ 109 µM); with Fonsecaea pedrosoi, 1 µg/mL (≈ 1.7 µM); against Candida albicans, 0.016 µg/mL. Besides, the MIC80 against Trichophyton rubrum came out at 4 µg/mL (≈ 6.78 µM); against Candida parapsilosis, 0.03 µg/mL (≈ 0.0509 µM).
Regarding `CCC(C)n1ncn(-c2ccc(N3CCN(c4ccc(OCC5COC(Cn6cncn6)(c6ccc(Cl)cc6Cl)O5)cc4)CC3)cc2)c1=O` (configuration not stated) [ITRACONAZOLE], the MIC80 against Candida tropicalis turned out to be 0.125 µg/mL (≈ 0.177 µM); against Cryptococcus neoformans it was 2 µg/mL (≈ 2.83 µM); against Aspergillus fumigatus, 1 µg/mL (≈ 1.42 µM); in the assay on Fonsecaea pedrosoi, 0.5 µg/mL (≈ 0.709 µM); with Candida albicans it was 0.125 µg/mL; against Trichophyton rubrum, 1 µg/mL (≈ 1.42 µM). The MIC80 in the assay with Candida parapsilosis was found to be 0.25 µg/mL (≈ 0.354 µM).
